Source: patent publication US10858305B2, “Perillyl alcohol-3-bromopyruvate conjugate and methods of treating cancer” (NeOnc Technologies, Inc., priority 2016, dated 2020)
Entries after “also recorded” stand apart in the source; their conditions may differ.

Experiments:
Format in all cases: cell-based, human
[1] = tested on: tumor cells (two cell lines, incl. MCF7/Dox); test: Colony formation assay (CFA), 24 hours drug exposure (FIG. 5); conditions: Homo sapiens, MCF7-DOX, colonies after ten to fifteen days, read-out: IC50 (cell survival and colony formation)
Procedure: The effect of NEO218 on tumor cell survival and colony formation relative to 3-BP, POH and 3-BP+POH was evaluated via the colony formation assay (CFA). Six hundred cells per culture well were seeded and exposed to increasing concentrations of NEO218, 3-BP, a mix of 3-BP+POH, or POH alone. After 24 hours, all drugs were removed from cells and fresh culture medium was added. Ten to fifteen days later, the surviving cells had formed colonies of descendants, which were stained and counted.

[2] = tested on: all cell types (breast, brain, ovary, colon cancer cell lines); test: Summary of cytotoxicity over MTT, LDH and colony formation assays (FIGS. 2-5); conditions: all cells
Text: The tumor cell-killing potency of NEO218 was characterized by in vitro, short-term MTT assays (measuring viability of cells via determination of metabolic activity), LDH assays (measuring the release of lactate dehydrogenase as an indicator of leaky cell membranes, which are indicative of dying cells), and colony-formation assays (CFA, which determine long-term survival of drug-treated cells and their ability to spawn a colony of descendants). Several established cell lines derived from cancers of the breast were used as target cells (including MDA-MB-231; MDA-MB-468; T47D; MCF7; MCF7/Dox; BTB12), brain (T98G; U251), ovary (A2780), and colon (HCT116). In all cases, cells in culture were exposed to increasing concentrations of agents for 24 or 48 hours.

[3] = tested on: MDA-MB-231 breast cancer cells; test: LDH release assay in MDA-MB-231 / breast cancer cell lines; conditions: breast cancer cell lines, 24 hours
Procedure: (§1) (A) MTT assay was performed after 24 hours. […] (B) LDH assay was performed after […]. LDH release by untreated cells was set to 1. Relative fold increase is shown (n=3).
(§2) (A) MTT assay was performed after 24 hours. Viability of untreated cells was set at 100% (data points are averages of 2 experiments). (B) LDH assay was performed after 24 hours. LDH release by untreated cells was set to 1. Relative fold increase is shown (averages from 2 experiments). (C) Representative photos show typical colony formation after initial 48 hours of drug treatment. In all cases of combination treatment with 3-BP mixed with […] (3-BP+POH), the indicated concentrations refer to each individual drugs, i.e., 100 μM 3-BP+POH means that 100 μM 3-BP was combined with 100 μM POH.
The capacity for rapid cell killing by NEO218 relative to 3-BP, POH and 3-BP+POH was evaluated via LDH assay, where LDH release is used as a proxy for cell death.
In FIG. 4, Panels (a) and (b), show the results of treating breast cancer cell lines with increasing concentrations of NEO218, 3-BP, or 3-BP mixed with POH. […] In all cases a-d, the release of LDH (as a marker of cell death) was measured after 24 hours.
Depending on the cell line, 2000 to 4000 cells per well were seeded in a volume of 50 μL into a 96-well plate. The next day, drugs ere added in an additional 50 μL of medium. At different time points (usually after 24 hours of incubation), 50 μL medium was removed and processed with the LDH Cytotoxicity Assay Kit (Thermo Fisher Scientific, Waltham, Mass.) according to the manufacturer's instructions. This kit measures extracellular LDH in culture medium using an enzymatic reaction that results in a red formazan product, which can be measured spectrophotometrically. The absorbance was measured at 490 and 680 nm. All LDH levels were normalized to untreated controls and presented as fold change of the controls.

MDA-MB-231 cells = test: MTT short-term toxicity assay in MDA-MB-231 cells; conditions: MDA-MB-231
Procedure: as §1, §2
Methylthiazoletetrazolium (MTT) assays were performed as described earlier.

tumor cell lines = test: cells; conditions: Homo sapiens; MTT, 24 hours; POH alone; read-out: concentration required to reach IC50
Procedure: Different tumor cell lines were treated with 3-BP mixed with POH, and the effects were compared to the effects of NEO218, as well as to 3-BP alone. The cells were treated for 24 hours, and then the MTT assay was conducted to measure cell viability.

[4] = tested on: HCT116 colon cancer cells; test: Cellular ATP content assay; conditions: 100 nM rotenone in glucose-free medium
Procedure: HCT116 cells were treated with 40 μM 3-BP or NEO218. As a point of reference, cells were also exposed to 100 nM rotenone in glucose-free medium. ATP levels were determined after 3 and 6 hours. ATP levels in untreated cells were set at 100% (corresponding to 26.6 nmol per one million cells).
HCT116 colon cancer cells were treated cells with: NEO218, 3-BP; rotenone (a mitochondrial poison that blocks the respiratory chain); medium without glucose (“no gluc”; in order to shut down glycolysis); and, rotenone in combination with absent glucose (to cease all intracellular ATP production). After 3 hours of treatment, a commercially available ATP detection assay kit was employed to determine the relative levels of ATP present.
ATP content of cells was measured with the ATP Colorimetric/Fluorometric Assay kit (Biovision Inc., Milpitas, Calif.), which utilizes the phosphorylation of glycerol to generate a product that is quantified by colorimetry at 570 nm. Approximately 1×10^6 cells were cultured in 10-cm tissue culture plates, exposed to drug treatment for various time periods, and then processed as per manufacturer's instructions. All ATP levels were normalized to untreated controls and presented as percentage of controls.

HCT116 cells = test: FACS analysis for annexin V and propidium iodide; conditions: 2, 4 or 8 hours of treatment
Procedure: (§3) (A) FACS analysis of HCT116 cells after treatment for 2, 4, or 8 hours with vehicle, 30 μM 3-BP, 30 μM NEO218, or 1 μM staurosporine (STS). […] (B) Western blot analysis of apoptotic markers. In the top section, MDA-MB-231 cells were treated with 30 μM NEO218 or 1 μM STS for various time points. In the lower section, HCT116 cells were treated with the indicated concentrations of 3-BP, NEO218, or STS for 16 hours. In all cases cell lysates were prepared and analyzed for the well-established apoptotic markers cleaved PARP, cleaved (i.e., activated) caspase 7 (cl. C-7), and phosphorylated (i.e., active) H2AX. Actin was used as a loading control. (C) HCT116 cells were pretreated with 50 μM Z-VAD-FMK for one hour, followed by the addition of increasing concentrations of 3-BP or NEO218. Cell viability was determined by MTT assay 24 hours later. Data points are averages from n=3.
In the absence of indications that apoptotic mechanisms played a significant role in cell death induced by NEO218, necrosis was investigated as a potential key mechanism. The distinction between apoptotic and necrotic cell death was made by measuring annexin V staining (a marker of apoptosis) and PI (propidium iodide) staining (a marker of necrosis) of drug-treated cells, in comparison to non-drug-treated cells (as a control). Measurements of annexin V and PI were done by FACS analysis after 2, 4, or 8 hours of treatment. Cells were treated with NEO218, 3-BP, and staurosporine (individually), and incorporation of propidium iodide (PI, a marker of necrotic cell death) or annexin V (a marker for apoptosis) was determined by fluorescence-activated cell sorting.
The results are organized in FIG. 8 as follows: no treatment (top row), 3-BP (second row), NEO218 (third row), and staurosporine (bottom row).
Characterization of cell death was performed by flow cytometry using the Alexa Fluor® 488 Annexin V/Dead Cell Apoptosis kit (Thermo Fisher Scientific). This kit contains recombinant, green fluorophore-conjugated annexin V, which reacts with apoptotic cells, and DNA-binding, red-fluorescent propidium iodide (PI), which is impermeant to live and apoptotic cells, but stains dead cells. The different cell populations can be distinguished by green fluorescence (apoptotic cells), red fluorescence (necrotic/dead cells), and no fluorescence (live cells) during flow cytometry with 488 nm laser excitation. Control or drug-treated cells were processed as per manufacturer's instructions, followed by flow cytometry of 10,000 cells per point with an LSR II (BD Biosciences, San Jose, Calif.) at the USC Flow Cytometry Core Facility.

[5] = tested on: cleaved caspase 7, cleaved PARP, γ-H2AX in MCF7, MDA-MB-231 and HCT116 cells; test: Western blot for apoptosis markers; conditions: STS as positive control
Procedure: as §3
The capacity for NEO218 to induce apoptosis was evaluated in a series of experiments. Three different cell lines were treated 3-BP and NEO218. Drug-treated cells were harvested, and cellular lysates were analyzed by Western blot for the presence of the three well-established markers of apoptosis: • cleaved caspase 7 (cl. C7); • cleaved (cl.) vs. full-length (f.l.) PARP; and, • induction of γ-H2AX (which indicates DNA cleavage).
The appearance of cl. C7 and cl. PARP is indicative of ongoing apoptotic processes. In all cases, lysates were also probed for the presence of actin as a control.
Two breast cancer cell lines (MCF7 and MDA-MB-231) and one colon cancer cell line (HCT116) were treated with increasing concentrations of NEO218 or 3-BP. As a control, they were also treated with staurosporine (STS), a known potent inducer of apoptosis. Western blot analyses for the presence of apoptosis markers are shown in the left panels of FIG. 6.
Total cell lysates were analyzed by Western blot analysis as described earlier. Primary antibodies against cleaved caspase 7 and PARP were obtained from Cell Signaling Technology (Danvers, Mass.), and antibodies against actin (C-11) and MCT1 (H-1) were obtained from Santa Cruz Biotechnology (Santa Cruz, Calif.). All antibodies were used according to the manufacturers' recommendations, except that in the case of MCT1 detection, the boiling step was omitted before loading the samples onto the polyacrylamide gel. All immunoblots were repeated at least once to confirm the results.

C=C(C)[C@@H]1CC=C(CO)CC1 [POH, perillyl alcohol]
IC50 [1]: > 1000 µM
IC50 of POH alone [2]: several hundred
toxic potency by LDH release [3]: requires fairly high concentrations to achieve cell killing
IC50 of POH alone (MDA-MB-231 cells): approaching the millimolar range
IC50 (tumor cell lines): ≥ 500 µM

C=C(C)[C@H]1Cc2c(ccc3c2O[C@@H]2COc4cc(OC)c(OC)cc4[C@@H]2C3=O)O1 [rotenone]
ATP level ([4]; after six hours): about 10 % of normal
ATP level ([4]; within the first 3 hours, untreated = 100%): < 25%

CN[C@@H]1C[C@H]2O[C@@](C)([C@@H]1OC)n1c3ccccc3c3c4c(c5c6ccccc6n2c5c31)C(=O)NC4 [staurosporine]
incorporation of PI (necrosis) versus annexin V (apoptosis) (HCT116 cells): incorporation of annexin V, but very little PI
incorporation of PI (necrosis) versus annexin V (apoptosis) (HCT116 cells; listed as STS): moved from the lower left quadrant (=fully viable cells) to the lower right quadrant (=annexin V-positive cells)
induction of apoptosis markers (cleaved PARP, cleaved caspase 7, γ-H2AX) [5]: striking induction of all 3 markers of apoptosis
induction of apoptosis markers (cleaved PARP, cleaved caspase 7, γ-H2AX) ([5]; listed as STS): triggered pronounced cleavage of PARP, activation of C-7; also recorded: prominent appearance of apoptotic markers
